The values below are quoted from earlier work in the CATMoS acute toxicity set (Mansouri et al. 2021).

Structures are written as SMILES. Values joined by “and” are separate entries in the source; they are usually repeats but may differ in a detail not shown here. Identical values can stand only once.

The nature of the series: rat acute oral toxicity. The settings on record: in vivo.
On to `CCOC(C1=NCC(CC)(CC)CN1)c1ccccc1` (stereo not given), for which the LD50 (commonly the dose at which mortality reaches 50%) was 250 mg/kg. Consider `COP(=O)(Oc1cc(Cl)c(Br)cc1Cl)c1ccccc1` (stereo not given), for which the LD50 was 118 mg/kg.

As for `COc1ccc2c(c1)[C@@]13CCCC[C@H]1[C@@H](C2)N(C)CC3`, the LD50 was 242 mg/kg. As to `CC(=O)CC(=O)OC(C)C`, the LD50 was 16200 mg/kg. On to `CCN(CC)S(=O)(=O)c1ccc(OP(=S)(OC)OC)cc1Cl`, for which the LD50 was 50 mg/kg. For the compound `COc1c2occc2cc2ccc(=O)oc12`, the LD50 is 791 mg/kg. On to `CCC1(c2ccccc2)C(=O)N=C(O)NC1=O` (stereo not given), for which the LD50 was 150 mg/kg.

Regarding `CCN(CC)CCNC(=O)COc1cc(OC)c(OC)c(OC)c1`, the LD50 was 1760 mg/kg. With `CCCCOC(=O)C(Cl)(Cl)Oc1ccccc1`, the LD50 is 1500 mg/kg.

Take `CC(=O)c1ccc(OCC(=O)NN)cc1`: the LD50 was 1820 mg/kg. In the case of `OCCN1CCN(CCC=C2c3ccccc3Sc3ccc(C(F)(F)F)cc32)CC1`, the LD50 is 791 mg/kg. For the compound `CC(Cl)(C=O)CCl` (stereo not given), the LD50 was 1620 mg/kg. With `CCOc1c(N2CCOCC2)cnn(C)c1=O`, the LD50 was 1900 mg/kg. On to `CC(C)(C)NC[C@H](O)COc1ccccc1C1CCCC1`, for which the LD50 is 1260 mg/kg. For `C=CC=C`, the LD50 is 5480 mg/kg. On to `Cc1occc1C(=O)Nc1ccccc1`, for which the LD50 was 12900 mg/kg.

In the case of `COCCOC(=O)C=CC(=O)OCCOC`, the LD50 was 3340 mg/kg. As for `CO[Si](CCCNCCC[Si](OC)(OC)OC)(OC)OC`, the LD50 was 3780 mg/kg. For `CON(C(=O)c1cc(C)oc1C)C1CCCCC1`, the LD50 is 3780 mg/kg. `CCC(CC)CO`: the LD50 was 1850 mg/kg. In the case of `CCCCCCCCCOC(=O)C1=CNC=C(C(=O)NC2CCCC2)C1c1ccccc1[N+](=O)[O-]` (stereo not given), the LD50 is 10 mg/kg. On to `COP(=O)(OC)Sc1ccc([N+](=O)[O-])cc1`, for which the LD50 was 42.9 mg/kg. For the compound `COc1ccccc1NC(=O)CC(=O)c1ccccc1`, the LD50 was 1600 mg/kg. Take `C/C=N/N(C)C=O`: the LD50 is 320 mg/kg. Regarding `CN1CCCC(n2nc(Cc3ccc(Cl)cc3)c3ccccc3c2=O)CC1` (stereo not given), the LD50 was 310 mg/kg and 580 mg/kg.

On to `O=C(O)C(=O)C(O)=C(O)O`, for which the LD50 is 6000 mg/kg. As to `CC(=O)c1ccccc1[N+](=O)[O-]`, the LD50 was 1600 mg/kg. In the case of `C=CCOC(=O)C=Cc1ccccc1`, the LD50 is 1520 mg/kg. With `O=C(OCCN1CCCCC1)C(O)(c1ccccc1)c1ccccc1`, the LD50 was 1210 mg/kg.

`CC1(C)OCC(CCl)O1` (stereo not given): the LD50 was 115 mg/kg.

With `CCC(C)c1ccc(Oc2ccc(C)cc2CC(=O)O)c(Cl)c1` (stereo not given), the median lethal dose (LD50) was 1110 mg/kg. For `CC[C@]1(CO)CCCN2CCc3c([nH]c4ccccc34)[C@@H]21`, the LD50 is 1200 mg/kg. As for `CC(C(C)(C)C)C(C)(C)SSSC(C)(C)C(C)C(C)(C)C` (stereo not given), the LD50 is 19600 mg/kg. For `COc1c2ccoc2cc2oc(C)cc(=O)c12`, the LD50 is 832 mg/kg. `CC(=O)Nc1ccc2c(c1)OCO2`: the LD50 is 1000 mg/kg. For `O=C(CS)OCCCCOC(=O)CS`, the LD50 is 405 mg/kg. For `CCN(CC)C(C)C(=O)c1ccccc1` (stereo not given), the LD50 is 400 mg/kg.

`OC1(c2ccc(Cl)c(C(F)(F)F)c2)CCN(CCCC(c2ccc(F)cc2)c2ccc(F)cc2)CC1`: the LD50 was 160 mg/kg. On to `CCc1ccc(OCC=C(C)CCC=C(C)C)cn1`, for which the LD50 is 800 mg/kg. Turning to `Cc1cc2c(C(C)C)c(O)c(O)c(C=O)c2c(O)c1-c1c(C)cc2c(C(C)C)c(O)c(O)c(C=O)c2c1O`, the LD50 is 2320 mg/kg. On to `CC1(C)C(C=NOCc2ccco2)C1C(=O)OC(C#N)c1cccc(Oc2ccccc2)c1` (stereo not given), for which the LD50 is 91 mg/kg.

On to `O=C(Nc1cccc(Cl)c1)OCC#CCOC(=O)Nc1cccc(Cl)c1`, for which the LD50 was 2040 mg/kg. Consider `CCCCCCCCOC(CBr)c1ccc(C(C)(C)C)cc1` (stereo not given), for which the LD50 is 250 mg/kg. Regarding `CNC(C)CC1CCCC1` (stereo not given), the LD50 is 169 mg/kg.

As for `OCCN1CCN(CCCN2c3ccccc3C=Cc3ccccc32)CC1`, the LD50 is 1110 mg/kg and 900 mg/kg. Regarding `NC1=NCC(c2ccccc2)O1` (stereo not given), the LD50 was 25 mg/kg. In the case of `CCC(CO)NC(=O)C1C=C2c3cccc4[nH]cc(c34)CC2N(C)C1` (stereo not given), the median lethal dose (LD50) is 93 mg/kg. `CC(=O)OCCC(Cl)C(C)=O` (stereo not given): the LD50 is 2050 mg/kg. As to `CCOC(=O)C1=C(C)NC(C)=C(C(=O)OC)C1c1cccc([N+](=O)[O-])c1` (stereo not given), the LD50 is 15400 mg/kg. `CC1(C)NC(=O)NC1=O`: the LD50 is 7800 mg/kg. In the case of `CNNC`, the LD50 is 100 mg/kg and 257 mg/kg. Turning to `C/[N+]([O-])=N/CO[C@@H]1O[C@H](CO)[C@@H](O)[C@H](O)[C@H]1O`, the LD50 was 270 mg/kg. On to `O=C(Nc1nnc(CCN2c3ccccc3Sc3ccccc32)s1)c1ccccc1`, for which the LD50 is 3220 mg/kg. Regarding `ClC(Cl)=C1C(Cl)(Cl)C(Cl)=C(Cl)C1(Cl)Cl`, the LD50 is 3700 mg/kg. On to `O=[N+]([O-])c1ccc(/C=N/NC(=S)N2CCCC2)o1`, for which the LD50 is 750 mg/kg.

`FC(F)(F)c1cccc(Nc2ccccc2-c2nn[nH]n2)c1`: the LD50 was 455 mg/kg.

As for `CN(N=O)C(N)=O`, the LD50 was 110 mg/kg. As to `CCN(CC)C(=O)CSc1ccc(Cl)nn1`, the LD50 was 1550 mg/kg. As to `O=C1C(=C(Cl)Cl)C(=O)C2(Cl)C3C=CC(C3)C12Cl` (stereo not given), the LD50 was 2760 mg/kg.

Take `CCCCN(C=O)CCCC`: the LD50 was 620 mg/kg.

On to `CCOP(=O)(NC(C)C)SCC(=O)NCOC` (stereo not given), for which the LD50 is 100 mg/kg.

Regarding `C=CCc1ccc(OC=O)c(OC)c1`, the LD50 is 3400 mg/kg.

For the compound `O=S(=O)(O)c1ccc(N=Nc2ccc(N=Nc3c(O)ccc4ccccc34)cc2)cc1`, the LD50 was 7740 mg/kg. On to `COC(=O)c1cc(C(=O)OC)cc([N+](=O)[O-])c1`, for which the LD50 is 10000 mg/kg. For `O=C1c2ccccc2C(=O)N1SC1CCCCC1`, the LD50 is 2600 mg/kg. On to `Oc1ccc(Cl)cc1Cc1ccccc1`, for which the LD50 was 1700 mg/kg. `COc1nc(C)nc(NC(=O)NS(=O)(=O)c2ccccc2CCC(F)(F)F)n1`: the LD50 is 986 mg/kg. For `C=C1C(C)(C)C2(Cl)C(Cl)(Cl)C(Cl)(Cl)C1(Cl)C2(Cl)Cl` (stereo not given), the LD50 was 40 mg/kg. As to `O=C(Cl)C(Br)CBr` (stereo not given), the LD50 was 1200 mg/kg. As to `CCCCc1c(OC(=O)c2cc(OC)c(OC)c(OC)c2)n(-c2ccccc2)n(-c2ccccc2)c1=O`, the LD50 is 3000 mg/kg. For `COC(CNCc1ccccc1)c1cccc(C(F)(F)F)c1` (stereo not given), the LD50 is 1720 mg/kg. In the case of `CC(Cl)C(Cl)Cl` (stereo not given), the LD50 was 1230 mg/kg. Turning to `CC1=CC(=O)NS(=O)(=O)O1`, the LD50 was 7430 mg/kg. Turning to `CC(=O)Oc1c(C(C)(C)C)cc([N+](=O)[O-])c(C)c1[N+](=O)[O-]`, the LD50 was 42 mg/kg. Consider `CC1(C)CC1CC1C(=O)N(c2ccccc2)N(c2ccccc2)C1=O` (stereo not given), for which the LD50 was 800 mg/kg.

Take `CCCC(CCC)C(=O)O[C@H]1C[C@H]2CC[C@@H](C1)[N+]2(C)C`: the LD50 is 705 mg/kg. On to `O=C(O)CCCc1ccc(N(CCCl)CCCl)cc1`, for which the LD50 was 76 mg/kg. With `CNC(=O)Oc1cccc(C(C)C)c1Cl`, the LD50 is 35 mg/kg. Take `CCC(C)NP1(=S)OCc2cc([N+](=O)[O-])ccc2O1` (stereo not given): the LD50 was 125 mg/kg. For `ClCCN1CCCC(C(c2ccccc2)c2ccccc2)C1` (stereo not given), the LD50 was 970 mg/kg. For the compound `NCCCCN`, the LD50 is 463 mg/kg.

Turning to `CN(C)CC/C=C1/c2ccccc2CSc2ccccc21`, the LD50 was 260 mg/kg. For `CC[C@@]1(O)C[N@@]2CC[C@H]1C[C@@H]2[C@@H](O)c1ccnc2ccc(OC)cc12`, the LD50 is 600 mg/kg. For the compound `O=[N+]([O-])c1ccc(O)c(Cl)c1`, the LD50 is 900 mg/kg. As for `CN(C)CCOC1=Cc2ccccc2Sc2ccc(Cl)cc21`, the LD50 is 306 mg/kg.
